Publication PMC12053997, “D-enantiomeric antibiofilm peptides effective against anaerobic Cutibacterium acnes biofilm” (Microbiology Spectrum, 2025)
In brackets after ≈: the same amount, converted by molar mass. Like-named read-outs stand apart in the source and are kept apart here. Blank lines part the entries; values can stand above or below the compound they belong to. Where a SMILES comes first, the peptide text is derived from it. Where no end group is shown, it is not given here. [ ]: non-standard residue; d: D form.

Assays:
[1] = tested on: C. acnes strains (C2, C5, PJI2, PJI8); assay: microbe, parasite or virus in culture
Experimental: (§1) C. acnes strains were isolated on Columbia agar containing 5% sheep blood (BioRad, Hercules, California, USA) and cultivated in Brain Heart Infusion (BHI) broth (BioRad, Hercules, California, USA) for 5 days, under anaerobic conditions using the GenBox system (Biomérieux, Marcy l’Etoile, France), at 37°C. For all assays, one colony of isolated C. acnes strains was inoculated in a 1.5 mL vial containing 1.5 mL of BHI. After 5–6 days of incubation (stationary phase reached after 4 days) at 37°C, the absorbance (at 600 nm) of the bacterial culture was adjusted to 1. The bacterial suspension was then diluted in BHI broth at 1/100 (OD: 0.01) and 1 mL of this suspension was inoculated in each well of 24- or 48-well plates.
(§2) Peptides were added to a 48-well plate at the desired concentrations in BHI medium and diluted bacteria were inoculated as described in the “Bacterial Strain Culture” section. Plates were incubated at 37°C, under anaerobic conditions using the GenBox system, for 5–6 days. The effect of the peptide on planktonic growth was determined by measuring the MIC which was defined as the concentration in the well containing the minimal amount of compound that leads to the absence of visible bacterial growth, according to Wiegand et al. ([38]). […] Finally, 48-well plates containing cultures with or without peptides were washed three times with water to remove unattached bacteria. Adhered bacteria were stained with 1 mL of 0.2% crystal violet for 20 min, then washed with water, and crystal violet was extracted with 95% ethanol (vol/vol). The quantity of biofilm (biomass) was analyzed by measuring the absorbance of the crystal violet suspension at 595 nm using the SpectroStar nano spectrophotometer (BMG Labtech, Ortenberg, Germany). The Minimal Biofilm Inhibition Concentration (MBIC) was defined as the concentration in the well containing the minimal quantity of peptide where the crystal violet absorbance, corrected by the blank, was null. Experiments were performed three independent times in technical duplicate for each strain.

[2] = tested on: C. acnes strains (C2, C5, PJI2, PJI8)
Experimental: as §1, §2

Compound: CC[C@@H](C)[C@@H](NC(=O)[C@@H](CCCNC(=N)N)NC(=O)[C@@H](CCCNC(=N)N)NC(=O)[C@@H](Cc1c[nH]c2ccccc12)NC(=O)[C@@H](CCC(N)=O)NC(=O)[C@H](N)C(C)C)C(=O)N[C@@H](C(=O)N[C@@H](C(=O)N[C@H](CCCNC(=N)N)C(=O)N[C@@H](C(=O)N[C@@H](C(=O)N[C@H](CCCNC(=N)N)C(N)=O)[C@H](C)CC)C(C)C)C(C)C)[C@H](C)CC [AB008-D] (H-[dV][dQ][dW][dR][dR][dI][dI][dV][dR][dV][dI][dR]-NH2)
- MBC ([1]; strains (C2, C5, PJI2, PJI8)): >64 µg/mL
- MBIC ([2]; strains (C2, C5, PJI2, PJI8)): 32 µg/mL

Compound: CO[C@H]1/C=C/O[C@@]2(C)Oc3c(C)c(O)c4c(O)c(c(/C=N/N5CCN(C)CC5)c(O)c4c3C2=O)NC(=O)/C(C)=C\C=C\[C@H](C)[C@H](O)[C@@H](C)[C@@H](O)[C@@H](C)[C@H](OC(C)=O)[C@@H]1C [Rifampicin, rifampicin, reference compound]
- MIC ([1]; Cutibacterium acnes): 0.008 µg/mL (≈ 9.72 nM)
- MBC ([1]; Cutibacterium acnes, strain C2, n=3): > 0.064 µg/mL
- MBC ([1]; Cutibacterium acnes, strain C5, n=3): > 0.064 µg/mL
- MBC ([1]; Cutibacterium acnes, strain PJI2, n=3): > 0.064 µg/mL
- MBC ([1]; Cutibacterium acnes, strain PJI8, n=3): 0.008 to 0.016 µg/mL (≈ 9.72 to 19.4 nM)
- MIC ([1]; strain C5, n=3): 0.008 µg/mL (≈ 9.72 nM)
- MIC ([1]; strain PJI2, n=3): 0.008 µg/mL (≈ 9.72 nM)
- MIC ([1]; strain PJI8, n=3): 0.008 µg/mL (≈ 9.72 nM)
- MBIC ([2]; strain C2, n=3): 0.002 to 0.004 µg/mL
- MBIC ([2]; strain C5, n=3): 0.008 µg/mL
- MBIC ([2]; strain PJI2, n=3): 0.004 to 0.008 µg/mL
- MBIC ([2]; strain PJI8, n=3): 0.008 µg/mL

Compound: VRLIVAVRIWRR-NH2 [Peptide 1018, reference compound]
- MIC ([1]; strain C2, BHI, anaerobic, 37°C, 5–6 days, n = 3 (n = 2 for 1018, AB008-D)): >64 µg/mL
- MBC ([1]; strain C2, no colonies on blood agar after 5–6 days anaerobic, n = 3 (n = 2 for 1018, AB008-D)): >64 µg/mL
- MIC ([1]; strain C5, BHI, anaerobic, 37°C, 5–6 days, n = 3 (n = 2 for 1018, AB008-D)): >64 µg/mL
- MBC ([1]; strain C5, no colonies on blood agar after 5–6 days anaerobic, n = 3 (n = 2 for 1018, AB008-D)): >64 µg/mL
- MIC ([1]; strain PJI2, BHI, anaerobic, 37°C, 5–6 days, n = 3 (n = 2 for 1018, AB008-D)): >64 µg/mL
- MBC ([1]; strain PJI2, no colonies on blood agar after 5–6 days anaerobic, n = 3 (n = 2 for 1018, AB008-D)): >64 µg/mL
- MIC ([1]; strain PJI8, BHI, anaerobic, 37°C, 5–6 days, n = 3 (n = 2 for 1018, AB008-D)): >64 µg/mL
- MBC ([1]; strain PJI8, no colonies on blood agar after 5–6 days anaerobic, n = 3 (n = 2 for 1018, AB008-D)): >64 µg/mL
- MBIC ([2]; strain C2, crystal violet absorbance 595 nm null, n = 3 (n = 2 for 1018, AB008-D)): 32 µg/mL
- MBIC ([2]; strain C5, crystal violet absorbance 595 nm null, n = 3 (n = 2 for 1018, AB008-D)): 32 µg/mL
- MBIC ([2]; strain PJI2, crystal violet absorbance 595 nm null, n = 3 (n = 2 for 1018, AB008-D)): 32 µg/mL
- MBIC ([2]; strain PJI8, crystal violet absorbance 595 nm null, n = 3 (n = 2 for 1018, AB008-D)): 32 µg/mL

Results, then the compound that gave them:

- MICs ([1]; strains (C2, C5, PJI2, PJI8)): 16 to 32 µg/mL
Compound: CC[C@@H](C)[C@@H](NC(=O)[C@@H](CCCNC(=N)N)NC(=O)[C@@H](CCCNC(=N)N)NC(=O)[C@@H](Cc1c[nH]c2ccccc12)NC(=O)[C@@H](CCC(N)=O)NC(=O)[C@H](N)C(C)C)C(=O)N[C@H](CC(C)C)C(=O)N[C@@H](C(=O)N[C@H](CCCNC(=N)N)C(=O)N[C@@H](C(=O)N[C@@H](C(=O)N[C@H](CCCNC(=N)N)C(N)=O)[C@H](C)CC)C(C)C)C(C)C [AB009-D] (H-[dV][dQ][dW][dR][dR][dI][dL][dV][dR][dV][dI][dR]-NH2)

- MICs ([1]; strains (C2, C5, PJI2, PJI8)): 16 to 32 µg/mL
Compound: CC[C@@H](C)[C@@H](NC(=O)[C@@H](CCCNC(=N)N)NC(=O)[C@H](N)CCCCN)C(=O)N[C@H](CCCNC(=N)N)C(=O)N[C@H](Cc1c[nH]c2ccccc12)C(=O)N[C@@H](C(=O)N[C@@H](C(=O)N[C@H](CC(C)C)C(=O)N[C@H](CCCNC(=N)N)C(=O)N[C@@H](C(=O)N[C@@H](C(=O)N[C@H](CCCNC(=N)N)C(N)=O)[C@H](C)CC)C(C)C)[C@H](C)CC)C(C)C [AB101-D] (H-[dK][dR][dI][dR][dW][dV][dI][dL][dR][dV][dI][dR]-NH2)

- MICs ([1]; strains (C2, C5, PJI2, PJI8)): 16 to 32 µg/mL
Compound: CC[C@@H](C)[C@@H](NC(=O)[C@@H](C)NC(=O)[C@@H](CCCNC(=N)N)NC(=O)[C@@H](Cc1c[nH]c2ccccc12)NC(=O)[C@@H](CCC(N)=O)NC(=O)[C@H](N)C(C)C)C(=O)N[C@H](CCCNC(=N)N)C(=O)N[C@@H](C(=O)N[C@H](CCCNC(=N)N)C(=O)N[C@@H](C(=O)N[C@@H](C(=O)N[C@H](CCCNC(=N)N)C(N)=O)[C@H](C)CC)C(C)C)C(C)C [DJK5, reference compound] (H-[dV][dQ][dW][dR][dA][dI][dR][dV][dR][dV][dI][dR]-NH2)
